Reference: patent US10300051B2, “Cyclopropylamines as LSD1 inhibitors” (priority 2014, dated 2019)

Molecular target: LSD-1 enzyme (Homo sapiens (Human), UniProt O60341)
Assay type: biochemical
Conditions: 1 nM LSD-1 enzyme, 1 hour preincubation at 25° C., Biotin-labeled Histone H3 peptide substrate
Description: Example A: LSD1 Histone Demethylase Biochemical Assay
LANCE LSD1/KDM1A demethylase assay—10 μL of 1 nM LSD-1 enzyme (ENZO BML-SE544-0050) in the assay buffer (50 mM Tris, pH 7.5, 0.01% Tween-20, 25 mM NaCl, 5 mM DTT) were preincubated for 1 hour at 25° C. with 0.8 μL compound/DMSO dotted in black 384 well polystyrene plates. […] Reactions were stopped by addition of 10 μL 1× LANCE Detection Buffer (PerkinElmer CR97-100) supplemented with 1.5 nM Eu-anti-unmodified H3K4 Antibody (PerkinElmer TRF0404), and 225 nM LANCE Ultra Streptavidin (PerkinElmer TRF102) along with 0.9 mM Tranylcypromine-HCl (Millipore 616431). After stopping the reactions plates were incubated for 30 minutes and read on a PHERAstar FS plate reader (BMG Labtech).

SMILES | IC50 [nM]
O=C(O)CCN1CCC(CN[C@@H]2C[C@H]2c2ccccc2)(COCc2ccccc2)CC1 [Example 40, 3-[4-[(benzyloxy)methyl]-4-({[(1R,2S)-2-phenylcyclopropyl]amino}methyl)piperidin-1-yl]propanoic Acid] | < 100
CN(C)C(=O)CCN1CCC(CN[C@@H]2C[C@H]2c2ccccc2)(Cc2ccc(F)cc2)CC1 [Example 10, 3-[4-(4-fluorobenzyl)-4-({[(1R,2S)-2-phenylcyclopropyl]amino}methyl)piperidin-1-yl]-N,N-dimethylpropanamide] | < 100
N#CCC1(CN[C@@H]2C[C@H]2c2ccccc2)CCNCC1 (relative stereo) [Example 6, (4-{[(trans-2-Phenylcyclopropyl)amino]methyl}piperidin-4-yl)acetonitrile] | < 100
COc1ccc(CC2(CN[C@@H]3C[C@H]3c3ccccc3)CCN(CCC(=O)O)CC2)cc1 [Example 55, 3-[4-(4-methoxybenzyl)-4-({[(1R,2S)-2-phenylcyclopropyl]amino}methyl)piperidin-1-yl]propanoic Acid] | < 100
CCOc1cccc(CC2(CN[C@@H]3C[C@H]3c3ccccc3)CCN(CCC(=O)O)CC2)c1 [Example 60, 3-[4-(3-ethoxybenzyl)-4-({[(1R,2S)-2-phenylcyclopropyl]amino}methyl)piperidin-1-yl]propanoic Acid] | < 100
CC(C)N1CCC(CN[C@@H]2C[C@H]2c2ccccc2)(Cc2cccc(C(=O)O)c2)CC1 [Example 34, 3-{[1-isopropyl-4-({[(1R,2S)-2-phenylcyclopropyl]amino}methyl)piperidin-4-yl]methyl}benzoic Acid] | < 100
CCN1CCC(CN[C@@H]2C[C@H]2c2ccccc2)(Cc2cccc(C(=O)O)c2)CC1 [Example 29, 3-{[1-ethyl-4-({[(1R,2S)-2-phenylcyclopropyl]amino}methyl)piperidin-4-yl]methyl}benzoic Acid] | < 100
O=C(O)CCN1CCC(CN[C@@H]2C[C@H]2c2ccccc2)(Cc2cccc(O[C@@H]3CCOC3)c2)CC1 [Example 35, 3-(4-({[(1R,2S)-2-phenylcyclopropyl]amino}methyl)-4-{3-[(3R)-tetrahydrofuran-3-yloxy]benzyl}piperidin-1-yl)propanoic Acid] | < 100
N#Cc1ccc(OCC2(CN[C@@H]3C[C@H]3c3ccccc3)CCN(CCC(=O)O)CC2)cc1 [Example 44, 3-[4-[(4-cyanophenoxy)methyl]-4-({[(1R,2S)-2-phenylcyclopropyl]amino}methyl)piperidin-1-yl]propanoic Acid] | < 100
COCC1(CN[C@@H]2C[C@H]2c2ccccc2)CCN(CCC(=O)O)CC1 [Example 22, 3-[4-(methoxymethyl)-4-({[(1R,2S)-2-phenylcyclopropyl]amino}methyl)piperidin-1-yl]propanoic Acid] | < 100
COCC1(CN[C@@H]2C[C@H]2c2ccccc2)CCN(C(=O)N2CCOCC2)CC1 [Example 49, (1R,2S)—N-{[4-(methoxymethyl)-1-(morpholin-4-ylcarbonyl)piperidin-4-yl]methyl}-2-phenylcyclopropanamine] | < 100
Fc1ccc(CC2(CN[C@H]3C[C@@H]3c3ccccc3)CCNCC2)cc1 [Example 12, (1S,2R)—N-{[4-(4-fluorobenzyl)piperidin-4-yl]methyl}-2-phenylcyclopropanamine] | < 100
O=C(O)CCN1CCC(CN[C@@H]2C[C@H]2c2ccccc2)(COc2ncc(F)cn2)CC1 [Example 46, 3-[4-{[(5-fluoropyrimidin-2-yl)oxy]methyl}-4-({[(1R,2S)-2-phenylcyclopropyl]amino}methyl)piperidin-1-yl]propanoic Acid] | < 100
CN1CCC(CN[C@@H]2C[C@H]2c2ccccc2)(Cc2cccc(C(=O)O)c2)CC1 [Example 28, 3-{[1-methyl-4-({[(1R,2S)-2-phenylcyclopropyl]amino}methyl)piperidin-4-yl]methyl}benzoic Acid] | < 100
O=C(O)c1cccc(CC2(CN[C@@H]3C[C@H]3c3ccccc3)CCN(C3CCOCC3)CC2)c1 [Example 31, 3-{[4-({[(1R,2S)-2-phenylcyclopropyl]amino}methyl)-1-(tetrahydro-2H-pyran-4-yl)piperidin-4-yl]methyl}benzoic Acid] | < 100
O=C(O)c1cccc(CC2(CN[C@@H]3C[C@H]3c3ccccc3)CCN(Cc3ccccn3)CC2)c1 [Example 32, 3-{[4-({[(1R,2S)-2-phenylcyclopropyl]amino}methyl)-1-(pyridin-2-ylmethyl)piperidin-4-yl]methyl}benzoic Acid] | < 100
COc1ccc(CC2(CN[C@@H]3C[C@H]3c3ccccc3)CCN(CCC(=O)O)CC2)cn1 [Example 50, 3-[4-[(6-methoxypyridin-3-yl)methyl]-4-({[(1R,2S)-2-phenylcyclopropyl]amino}methyl)piperidin-1-yl]propanoic Acid] | < 100
CN(C)CC(=O)N1CCC(CN[C@@H]2C[C@H]2c2ccccc2)(Cc2cccc(C(N)=O)c2)CC1 [Example 58, 3-{[1-[(dimethylamino)acetyl]-4-({[(1R,2S)-2-phenylcyclopropyl]amino}methyl)piperidin-4-yl]methyl}benzamide] | < 100
N#Cc1ccc(CC2(CN[C@@H]3C[C@H]3c3ccccc3)CCN(CCC(=O)O)CC2)c(F)c1 [Example 42, 3-[4-(4-cyano-2-fluorobenzyl)-4-({[(1R,2S)-2-phenylcyclopropyl]amino}methyl)piperidin-1-yl]propanoic Acid] | < 100
O=C(O)CCN1CCC(CN[C@@H]2C[C@H]2c2ccccc2)(COc2ccc(F)cn2)CC1 [Example 45, 3-[4-{[(5-fluoropyridin-2-yl)oxy]methyl}-4-({[(1R,2S)-2-phenylcyclopropyl]amino}methyl)piperidin-1-yl]propanoic Acid] | < 100
O=C(O)CCN1CCC(CN[C@@H]2C[C@H]2c2ccccc2)(Cc2cccc(F)c2F)CC1 [Example 19, 3-[4-(2,3-difluorobenzyl)-4-({[(1R,2S)-2-phenylcyclopropyl]amino}methyl)piperidin-1-yl]propanoic Acid] | < 100
N#CCC1(CN[C@@H]2C[C@H]2c2ccccc2)CCN(Cc2cccnc2)CC1 (relative stereo) [Example 7, [4-{[(trans-2-Phenylcyclopropyl)amino]methyl}-1-(pyridin-3-ylmethyl)piperidin-4-yl]acetonitrile] | < 100
O=C(O)CCN1CCC(CN[C@@H]2C[C@H]2c2ccccc2)(COCC2CCC2)CC1 [Example 52, 3-[4-[(cyclobutylmethoxy)methyl]-4-({[(1R,2S)-2-phenylcyclopropyl]amino}methyl)piperidin-1-yl]propanoic Acid] | < 100
O=C(O)CCN1CCC(CN[C@@H]2C[C@H]2c2ccccc2)(COC2CCCCC2)CC1 [Example 53, 3-[4-[(cyclohexyloxy)methyl]-4-({[(1R,2S)-2-phenylcyclopropyl]amino}methyl)piperidin-1-yl]propanoic Acid] | < 100
O=C(O)CCN1CCC(CN[C@@H]2C[C@H]2c2ccccc2)(COc2ccccc2F)CC1 [Example 37, 3-[4-[(2-fluorophenoxy)methyl]-4-({[(1R,2S)-2-phenylcyclopropyl]amino}methyl)piperidin-1-yl]propanoic Acid] | < 100
O=C(O)CCN1CCC(CN[C@@H]2C[C@H]2c2ccccc2)(Cc2cccc(F)c2)CC1 [Example 17, 3-[4-(3-fluorobenzyl)-4-({[(1R,2S)-2-phenylcyclopropyl]amino}methyl)piperidin-1-yl]propanoic Acid] | < 100
O=C(O)CN1CCC(CN[C@@H]2C[C@H]2c2ccccc2)(Cc2ccc(F)cc2)CC1 [Example 13, [4-(4-fluorobenzyl)-4-({[(1R,2S)-2-phenylcyclopropyl]amino}methyl)piperidin-1-yl]acetic] | < 100
